Measured values as given in patent publication US20080103199A1, “TREATMENT OF PERVASIVE DEVELOPMENTAL DISORDERS” (priority 2006, published 2008).

Key:
[1] = tested on: Crl:CD-1(ICR)BR albino mice; assay: Isolation-induced aggression model in pairs of mice; assay type: in vivo
Protocol: The effects of test compound on the aggressive behavior of Crl:CD-1(ICR)BR albino mice were evaluated using the paradigm of isolation-induced aggression.
Male Crl:CD-1(ICR)BR albino mice, fasted overnight, were individually housed for 5 weeks in plastic cages on wood-chip bedding. Subsequently, they were paired for 1 minute daily for several days by placing one individually housed mouse (intruder) into the resident cage of another individually housed mouse (resident). The 1-minute pairing of intruder and resident mouse elicits aggressive behavior. Pairs of mice showing consistent aggressive behavior when paired for 1 minute, during several days were selected as subjects for drug testing.
Test compound (10 to 40 mg/kg p.o.) or the vehicle (methocel; aqueous 0.5%, w/v, hydroxypropyl methylcellulose solution) was administered (10 mL/kg) to the resident and intruder mouse. One and 4 hours after dosing, the mice were paired and the onset of fighting was recorded. […] The duration of fighting during a 1-minute test period was recorded. Mice were re-used in this procedure after several days to a week to allow metabolism and elimination of test compounds. The mice weighed 32 to 49 g at the time of testing and were fasted overnight before dosing. Mice were euthanized with CO2 if they were sick or injured.
Results were expressed as the median onset of fighting and median duration of fighting in vehicle and drug-treated groups. The statistical significance of an increase in the median onset or a reduction in the median duration of fighting in pairs of mice given test compound or its vehicle 1 and 4 hours after administration was determined using the nonparametric Wilcoxon test (p<0.05, 1-tailed).

dominant rats = assay: Reduction of Dominant Behavior Model (RDBM) of mania, dominant-submissive rat food competition test; assay type: in vivo, Sprague-Dawley rats; settings: 5 weeks, dominant rat treated
Excerpt: In this study, the effects of COMPOUND #7 on dominant or submissive behavior in pairs of rats competing for food are examined. It has been shown that anti-manic drugs, including anticonvulsants, decrease dominance and antidepressant drugs reduce submissiveness. This model uses dominant behavior as a model of mania and submissive behavior as a model of depression. The dominance and submissiveness is defined in a competition test and measured as the relative success of two food-restricted rats to gain access to a feeder. Rats are randomly paired and placed in an apparatus allowing them to compete for a food reward. The dominant-submissive relationship develops over a 2-week period. The submissive or dominant animals in pairs selected after 2 weeks of training were treated orally […] (b.i.d.) with COMPOUND #7 at 3 or 30 mg/kg for 5 weeks. […]
The objective of this study was to determine if COMPOUND #7 is active in the Reduction of Submissive Behavior Model (RSBM) of depression and the Reduction of Dominant Behavior Model (RDBM) of mania. […] The endpoints measured were the development of a significant reduction of submissive or dominant behavior and its time of onset. […]
(§1) The test involves placing each member of a pair in opposite chambers of the testing apparatus. […] The test is conducted once a day over a 5-minute period and the time spent on the feeder by each animal is recorded. […]

submissive rats = assay: Reduction of Submissive Behavior Model (RSBM) of depression, dominant-submissive rat food competition test; assay type: in vivo, Sprague-Dawley rats; settings: 5 weeks, submissive rat treated
Excerpt: In this study, the effects of COMPOUND #7 on dominant or submissive behavior in pairs of rats competing for food are examined. It has been shown that anti-manic drugs, including anticonvulsants, decrease dominance and antidepressant drugs reduce submissiveness. This model uses dominant behavior as a model of mania and submissive behavior as a model of depression. The dominance and submissiveness is defined in a competition test and measured as the relative success of two food-restricted rats to gain access to a feeder. Rats are randomly paired and placed in an apparatus allowing them to compete for a food reward. The dominant-submissive relationship develops over a 2-week period. The submissive or dominant animals in pairs selected after 2 weeks of training were treated orally […] (b.i.d.) with COMPOUND #7 at 3 or 30 mg/kg for 5 weeks. The partner of the drug-treated animal was treated with vehicle.
The objective of this study was to determine if COMPOUND #7 is active in the Reduction of Submissive Behavior Model (RSBM) of depression and the Reduction of Dominant Behavior Model (RDBM) of mania. Measurements were made at two doses (3 and 30 mg/kg) after oral twice a day (b.i.d.) administration. The effect of the drug in the RSBM was compared to the effect of fluoxetine (10 mg/kg) and vehicle (0.5% methylcellulose). The effect of the drug in the RDBM was compared with the effect of lithium (100 mg/kg) and vehicle (0.5% methylcellulose). The endpoints measured were the development of a significant reduction of submissive or dominant behavior and its time of onset.
The DSR developed by two rats competing for food uses the apparatus in FIG. 1.
In the experiments described in this report Sprague-Dawley rats weighing 160 to 180 g were used. Testing for the development of a DSR between paired rats begins with the random assignment of rats into pairs. […]
as §1

male mice = assay: General behavior of male mice, visual observation using a checklist of behaviors; assay type: in vivo; settings: N = 3/group
Protocol: The effects of test compound on general behavior were evaluated by visual observation using a checklist of behaviors.

Number of Mice Affected: Decreased Open Field Activity (male mice; 40 mg/kg p.o., 1 h): 0
Number of Mice Affected: Decreased Startle Reflex (male mice; 40 mg/kg p.o., 1 h): 0
Number of Mice Affected: Extensor Limb Tone (hind limb) (male mice; 40 mg/kg p.o., 1 h): 0
Number of Mice Affected: Impaired Horizontal Screen Performance (male mice; 40 mg/kg p.o., 1 h): 0
Number of Mice Affected: Impaired Visual Placing Reflex (male mice; 40 mg/kg p.o., 1 h): 0
Number of Mice Affected: Loss of Corneal Reflex (male mice; 40 mg/kg p.o., 1 h): 0
Number of Mice Affected: Loss of Pinnal Reflex (male mice; 40 mg/kg p.o., 1 h): 0
Number of Mice Affected: Loss of Righting Reflex (male mice; 40 mg/kg p.o., 1 h): 0
Number of Mice Affected: Passive Response to Handling (male mice; 40 mg/kg p.o., 1 h): 0
Number of Mice Affected: Reduced Skin Plasticity (male mice; 40 mg/kg p.o., 1 h): 0
Number of Mice Affected: Soft Body Tone (male mice; 40 mg/kg p.o., 1 h): 0
Number of Mice Affected: Tail Pinch Response, Absent (male mice; 40 mg/kg p.o., 1 h): 0
Number of Mice Affected: Decreased Open Field Activity (male mice; 40 mg/kg p.o., 4 h): 0
Number of Mice Affected: Decreased Startle Reflex (male mice; 40 mg/kg p.o., 4 h): 0
Number of Mice Affected: Extensor Limb Tone (hind limb) (male mice; 40 mg/kg p.o., 4 h): 0
Number of Mice Affected: Impaired Horizontal Screen Performance (male mice; 40 mg/kg p.o., 4 h): 0
Number of Mice Affected: Impaired Visual Placing Reflex (male mice; 40 mg/kg p.o., 4 h): 0
Number of Mice Affected: Loss of Corneal Reflex (male mice; 40 mg/kg p.o., 4 h): 0
Number of Mice Affected: Loss of Pinnal Reflex (male mice; 40 mg/kg p.o., 4 h): 0
Number of Mice Affected: Loss of Righting Reflex (male mice; 40 mg/kg p.o., 4 h): 0
Number of Mice Affected: Passive Response to Handling (male mice; 40 mg/kg p.o., 4 h): 0
Number of Mice Affected: Reduced Skin Plasticity (male mice; 40 mg/kg p.o., 4 h): 0
Number of Mice Affected: Soft Body Tone (male mice; 40 mg/kg p.o., 4 h): 0
Number of Mice Affected: Tail Pinch Response, Absent (male mice; 40 mg/kg p.o., 4 h): 0
Number of Mice Affected: Decreased Open Field Activity (male mice; 100 mg/kg p.o., 1 h): 0
Number of Mice Affected: Decreased Startle Reflex (male mice; 100 mg/kg p.o., 1 h): 0
Number of Mice Affected: Extensor Limb Tone (hind limb) (male mice; 100 mg/kg p.o., 1 h): 0
Number of Mice Affected: Impaired Horizontal Screen Performance (male mice; 100 mg/kg p.o., 1 h): 0
Number of Mice Affected: Impaired Visual Placing Reflex (male mice; 100 mg/kg p.o., 1 h): 0
Number of Mice Affected: Loss of Corneal Reflex (male mice; 100 mg/kg p.o., 1 h): 0
Number of Mice Affected: Loss of Pinnal Reflex (male mice; 100 mg/kg p.o., 1 h): 0
Number of Mice Affected: Loss of Righting Reflex (male mice; 100 mg/kg p.o., 1 h): 0
Number of Mice Affected: Passive Response to Handling (male mice; 100 mg/kg p.o., 1 h): 0
Compound: NC(=O)OC[C@@H](O)c1ccccc1Cl [COMPOUND #7]
Onset for initiation of fighting compared to vehicle-treated group ([1]; 20 mg/kg p.o., 4 hours after administration): statistically significantly shorter
Effect on isolation-induced aggressive behavior ([1]; 40 mg/kg p.o., 1 hour after administration, vs vehicle (p<0.05)): inhibited isolation-induced aggressive behavior
Effect on median duration of fighting compared to vehicle-treated groups ([1]; any dose group (10 to 40 mg/kg p.o.), 4 hours after administration): not affected
Effect on performance (competitiveness) of dominant rats (dominant rats; 3 mg/kg b.i.d. p.o.): decreased the performance
Effect on performance (competitiveness) of dominant rats (dominant rats; 30 mg/kg b.i.d. p.o.): significantly increased the competitiveness
Effect on submissive rat behavior (competitiveness, time spent at feeder) (submissive rats; 3 mg/kg b.i.d. p.o.): did not have any effect
Effect on submissive rat behavior (competitiveness, time spent at feeder) (submissive rats; 30 mg/kg b.i.d. p.o., vs vehicle-treated): significantly increased competitiveness
Number of Mice Affected: Locomotor Ataxia (male mice; 40 mg/kg p.o., 1 h): 0
Number of Mice Affected: Locomotor Ataxia (male mice; 40 mg/kg p.o., 4 h): 0
Number of Mice Affected: Locomotor Ataxia (male mice; 100 mg/kg p.o., 1 h): 0
